Results from patent publication US4014860A, “Plasminostreptin (enzyme inhibitor) and method for producing it from streptomyces” (Takeda Chemical Industries, Ltd., priority 1972, dated 1977).

Experiments:
[1] = molecular target: T1, Plasmin-SK (Homo sapiens, UniProt P00747); assay: Plasmin-fibrin system (fibrin plate method); type: biochemical
T1 construct: made in house
Method: 1. Plasmin-SK: The euglobulin fraction obtained from human blood plasma is dissolved in buffer (1) which is described below and then, activated with streptokinase (Lederle) [Annual Report of Takeda Research Laboratories, 28, 140 (1969)].
1. Plasmin-fibrin system (fibrin plate method): Ten ml of a fibrinogen solution (1%, buffer (1)) is placed in a petri dish (9 cm in diameter) and gelled by the addition of 0.2 ml of thrombin [50 J. P. units (Japanese Pharmacopeia units)/ml, 0.145 M sodium chloride]. The gel is allowed to stand at 30° C for 30 minutes to prepare a fibrin plate. Meanwhile, paper discs (8mm in diameter, water-absorbing capacity: 0.025 ml) are dipped in a plasminostreptin solution of varying concentrations and allowed to dry on a filter paper in the air.
Then, 0.015 ml of a plasmin-SK solution is dropped onto each of the discs, which is placed on the above fibrin plate. After the system is allowed to stand at 37° C for 5 to 10 hours, the formation of lyzed zone in evaluated. The plasmin-inhibiting activity of plasminostreptin is indicated as the concentration of plasminostreptin solution required for a complete inhibition of fibrinolysis.

[2] = Isoelectric point by isoelectric focussing method; type: physicochemical
Description: 6. Isoelectric point: about 6.3 as determined by the isoelectric focussing method Acta Chemica Scandinavica,20, 820 (1966)

[3] = Solubility; type: physicochemical
[4] = molecular target: T2, plasmin-UK (Homo sapiens, UniProt P00747); assay: Plasmin-fibrin system (determination of clot lysis time); type: biochemical; settings: 50% inhibition of 0.08 casein units of plasmin-UK
T2 construct: purchased Midorijuji
Method: (§1) 2. Plasmin - UK (Midorijuji, urokinase-activated plasmin)
(2) Plasmin-fibrin system (determination of clot lysis time): Into a small test tube are poured 0.4 ml of a fibrinogen solution (0.25%, buffer (1)), 0.3 ml of buffer (1) and 0.1 ml of plasminostreptin solution of varying concentrations, followed by the addition of 0.1 ml of a plasmin-UK solution [0.8 casein units/ml, buffer (1)]. The mixture in blended well and immediately thereafter, 0.1 ml of a thrombin solution (50 J. P. units/ml, 0.145 M sodium chloride) is added. The resulting gel is allowed to stand at 37° C and the time necessary to lyse the clot is measured. The plasmin-inhibiting activity of plasminostreptin is determined by the procedure set forth in Biochimica Biophysica Acta. 214, 411 (1970). Thus, the amount of plasminostreptin which is required for a 50% inhibition of the activity of 0.08 casein units of plasmin-UK, which occurs in the reaction mixture, is determined from the concentration of plasminostreptin which will double the clot lysis time in the absence of plasminostreptin, and the above amount is indicated in units of ID50.
Target sequence in this assay (P00747 581-810 limits assumed): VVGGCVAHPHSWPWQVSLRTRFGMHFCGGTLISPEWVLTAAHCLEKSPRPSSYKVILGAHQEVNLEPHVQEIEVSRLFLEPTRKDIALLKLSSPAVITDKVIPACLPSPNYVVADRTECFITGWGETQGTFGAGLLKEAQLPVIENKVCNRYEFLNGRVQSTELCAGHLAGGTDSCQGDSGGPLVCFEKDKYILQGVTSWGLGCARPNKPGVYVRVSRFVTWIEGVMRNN
Target sequence in this assay (P00747 97-580 partner limits assumed): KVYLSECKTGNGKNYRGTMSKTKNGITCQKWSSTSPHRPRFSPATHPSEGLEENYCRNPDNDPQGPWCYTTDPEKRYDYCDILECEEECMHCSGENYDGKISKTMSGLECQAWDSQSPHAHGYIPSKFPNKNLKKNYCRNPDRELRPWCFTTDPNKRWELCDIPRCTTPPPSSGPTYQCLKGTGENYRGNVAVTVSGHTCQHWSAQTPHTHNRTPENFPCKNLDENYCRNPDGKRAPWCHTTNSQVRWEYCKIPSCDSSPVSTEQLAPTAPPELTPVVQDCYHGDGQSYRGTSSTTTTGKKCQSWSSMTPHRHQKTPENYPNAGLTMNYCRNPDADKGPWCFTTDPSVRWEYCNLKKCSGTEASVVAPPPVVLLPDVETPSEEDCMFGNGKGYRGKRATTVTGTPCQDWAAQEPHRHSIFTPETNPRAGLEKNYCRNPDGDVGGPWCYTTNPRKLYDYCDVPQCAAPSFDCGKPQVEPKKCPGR

[5] = test system: Fusarium alkaline protease; assay: Fusarium alkaline protease-casein system; type: biochemical; settings: 50% inhibition of 4 μg of Fusarium alkaline protease; casein substrate, pH 10.5
Method: 4. fusarium crystalline alkaline protease (U.S.P. No. 3652399)
(§2) Into a test tube are poured 1 ml of a casein solution [2%, buffer (3)], 0.5 ml of buffer (3), and 0.4 ml of a plasminostreptin solution of varying concentration and after the addition of 0.1 ml of either a Fusarium alkaline protease solution [40 μg/ml, buffer (3)] or Nagarse solution [100 μg/ml, buffer (3)], the mixture is blended well and allowed to stand under conditions similar to those described for the plasmin-casein system. Thereafter, also in the same manner as described above, the amount of plasminostreptin required for a 50% inhibition of the activity of 4 μg of Fusarium alkaline protease and 10 μg of Nagarse in the absence of plasminostreptin is determined, respectively, and indicated in units of ID50.

[6] = test system: mice; assay: Acute toxicity tests in mice; type: in vivo
Description: The toxicity of plasminostreptin is extremely low and its LD50 values as determined by acute toxicity tests in mice are more than 5 g/kg orally, more than 5 g/kg intraperitoneally and 2 to 3 g/kg, intravenously.

[7] = molecular target: T2, plasmin-UK; assay: Plasmin activity of rat blood plasma before and after intravenous administration; type: in vivo; settings: rats, 0.8 mg intravenous, 1 hour after administration; result in words
Method: From each of five rats (male, SD, 7 weeks old), blood samples are taken before the administration of plasminostreptin and also 1 hour after the intravenous administration of 0.8 mg plasminostreptin. The plasma is separated from each of the blood samples and the abovementioned plasmin-UK solution is added in each plasma sample to various concentrations.
Immediately thereafter, the activity of plasmin in each plasma sample is determined using casein as substrate. The plasmin activity of blood plasma samples from each rat before and after the administration of plasminostreptin are compared.
Target sequence in this assay (P00747 581-810 limits assumed): as the sequence (P00747 581-810 limits assumed) above
Target sequence in this assay (P00747 97-580 limits assumed): as the sequence (P00747 97-580 partner limits assumed) above

[8] = molecular target: T3, Trypsin (Bos taurus, UniProt P00760); assay: Trypsin-casein system; type: biochemical; settings: 50% inhibition of 10 μg of trypsin; casein substrate
T3 construct: purchased Sigma Type III
T3 sequence (P00760 24-246): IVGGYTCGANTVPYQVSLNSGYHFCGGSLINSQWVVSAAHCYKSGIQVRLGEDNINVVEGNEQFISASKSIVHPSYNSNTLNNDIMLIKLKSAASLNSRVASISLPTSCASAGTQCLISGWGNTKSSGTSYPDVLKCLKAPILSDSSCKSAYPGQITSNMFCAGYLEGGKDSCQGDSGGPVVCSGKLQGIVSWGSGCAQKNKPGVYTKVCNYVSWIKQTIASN
Method: 3. Trypsin (Sigma, crystalline, Type III)
Into a test tube are poured 1 ml of a casein solution [2%, buffer (2)], 0.5 ml of buffer (2) and 0.3 ml of a plasminostreptin solution of varying concentrations and after the addition of 0.2 ml of a trypsin solution [50 μg/ml, buffer(2)], the mixture is blended well and allowed to stand under conditions similar to those described for the plasmin-casein system. Thereafter, also in the same manner as described above, the amount of plasminostreptin required for a 50% inhibition of the activity of 10 μg of trypsin in the absence of plasminostreptin is determined and indicated in units of ID50.

[9] = molecular target: T2, plasmin-UK; assay: Plasmin-casein system; type: biochemical; settings: 50% inhibition of 0.4 casein units of plasmin-UK; casein substrate
Method: as §1
Target sequence in this assay (P00747 581-810 limits assumed): as the sequence (P00747 581-810 limits assumed) above
Target sequence in this assay (P00747 97-580 partner limits assumed): as the sequence (P00747 97-580 partner limits assumed) above
3. plasmin-casein system: Into a test tube are poured 1 ml of casein solution [4%, buffer (2)], 0.5 ml of buffer (2) and 0.3 ml of a plasminostreptin solution of varying concentrations, followed by the addition of 0.2 ml of plasmin-UK solution [2 casein units/ml, buffer (2)]. The mixture is blended well and allowed to stand at 37° C for 20 minutes. The reaction is terminated by the addition of 2 ml of 1.7 M perchloric acid and the system is allowed to stand at room temperature for another 1 hour. The reaction mixture is filtered through a filter paper and the absorbance of the resulting filtrate at 280 mμ is measured.
The plasmin-inhibiting activity of plasminostreptin is determined and indicated as follows.
Thus, the amount of plasminostreptin is determined which is required to effect a 50% inhibition of the activity of 0.4 casein units of plasmin-UK in the absence of plasminostreptin and is shown in units of ID50.

[10] = Stability (heat treatment, remaining activity); type: physicochemical; settings: 30 minutes' treatment at pH 4-9 and at 100° C
Method: More than 50 percent of the original activity remains intact even after a 30 minutes' treatment at pH 4-9 and at 100° C.

[11] = molecular target: T4, Nagarse (Bacillus amyloliquefaciens, UniProt P00782); assay: Nagarse-casein system; type: biochemical; settings: 50% inhibition of 10 μg of Nagarse; casein substrate, pH 10.5
T4 construct: purchased Nagase Sangyo
T4 sequence (P00782 108-382): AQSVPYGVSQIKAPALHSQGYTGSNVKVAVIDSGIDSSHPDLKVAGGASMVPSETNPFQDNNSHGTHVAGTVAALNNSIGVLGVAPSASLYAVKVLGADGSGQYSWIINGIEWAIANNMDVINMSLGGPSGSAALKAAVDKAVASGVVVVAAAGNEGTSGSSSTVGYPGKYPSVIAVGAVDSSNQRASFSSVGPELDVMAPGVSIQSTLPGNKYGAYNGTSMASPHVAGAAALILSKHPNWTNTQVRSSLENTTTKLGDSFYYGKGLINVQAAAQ
Method: 5. Nagarse(crystalline protease, Nagase Sangyo)
as §2

[12] = molecular target: T5, kallikrein (Beyer, Depot - Padutin) (Sus scrofa, UniProt P00752); assay: Kallikrein esterase activity against benzoylarginine ethyl ester; type: biochemical; settings: result in words
T5 construct: purchased Beyer (so in the source); Bayer) Depot - Padutin
T5 sequence (P00752 8-246): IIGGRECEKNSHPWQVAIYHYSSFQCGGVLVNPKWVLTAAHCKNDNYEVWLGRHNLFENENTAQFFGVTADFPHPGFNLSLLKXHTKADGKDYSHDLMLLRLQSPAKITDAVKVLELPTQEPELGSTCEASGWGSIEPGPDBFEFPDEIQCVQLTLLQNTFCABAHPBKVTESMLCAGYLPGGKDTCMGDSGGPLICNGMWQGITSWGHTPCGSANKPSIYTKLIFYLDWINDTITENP

T1 sequence (P00747 581-810 limits assumed): as the sequence (P00747 581-810 limits assumed) above
T1 sequence (P00747 97-580 partner limits assumed): as the sequence (P00747 97-580 partner limits assumed) above

Substance: plasminostreptin
- concentration for a complete inhibition of fibrinolysis ([1]; fibrin plate method, crystalline product of Example 1): 20 µg/mL
- Concentration for complete inhibition ([1]; fibrin plate, complete inhibition of fibrinolysis, Table 3): < 30 µg/mL
- Isoelectric point [2]: about 6.3
- Solubility in aqueous solution ([3]; ammonium sulfate at 60% saturation): almost completely precipitated
- Solubility ([3]; glacial acetic acid, alcohols, acetone, chloroform, ether, hexane and other organic solvents): only sparingly soluble
- Solubility in aqueous solution ([3]; neighborhood of pH 6): solubility drops
- Solubility ([3]; pyridine): slightly soluble
- Solubility ([3]; water and aqueous ammonia): Soluble
- ID50 [4]: < 10 µg
- ID50 [5]: < 6 µg
- LD50 ([6]; intraperitoneally): more than 5 g/kg
- LD50 ([6]; orally): more than 5 g/kg
- plasmin activity of blood plasma after administration [7]: significantly inhibited
- ID50 [8]: < 5 µg
- ID50 [9]: < 10 µg
- original activity remaining intact [10]: More than 50%
- ID50 [11]: < 5 µg
- Inhibition of the activity of kallikrein [12]: can hardly be detected
